Laboratory results as given in ChEMBL document CHEMBL6153170 (J Med Chem, 2025).
Calls of active or inactive are those of the source. The rule behind the calls is not given here.

Experiments:
[1] = molecular target: Programmed cell death 1 ligand 1 (Mus musculus, UniProt Q9EP73); assay: Binding affinity to C-terminal 6His-tagged recombinant mouse PD-L1 (1 to 238 residues) expressed in HEK293 cells assessed as dissociation constant by ITC analysis
B16-F10 [2] = assay: Antitumor immunity activity against mouse B16-F10 cells implanted in C57BL/6 mouse model assessed as CD3+ CD8+ T cell percentage in tumor at 20 mg/kg/day, ip administered for 14 days by flow cytometric analysis (reference value: 0.52 %); type: functional; conditions: time 14 day
[3] = Cmax in male Sprague-Dawley rat at 10 mg/kg, po measured after 48 hrs by triple quadrupole mass spectrometric analysis; type: ADME, organism-based; conditions: in vivo
[4] = Toxicity in C57 mouse assessed as myelosuppression by measuring platelet level at 20 mg/kg/day, IG administered for 14 days by heat map analysis; type: organism-based; conditions: in vivo, po, 336 h, time 14 day
Jurkat = assay: cells; conditions: Homo sapiens, 72 h
[5] = Toxicity in C57BL/6 mouse model implanted with mouse B16-F10 cells assessed as morphological changes in kidney at 20 mg/kg/day, ip administered for 14 days by H and E staining based analysis; type: organism-based; conditions: in vivo, 336 h, time 14 day
[6] = Toxicity in C57 mouse assessed as myelosuppression by measuring lymphocytes level at 20 mg/kg/day, IG administered for 14 days by heat map analysis; type: organism-based; conditions: in vivo, po, 336 h, time 14 day
B16-F10 [7] = assay: cells; conditions: Mus musculus, B16-F10, 48 h
[8] = Cmax in male Sprague-Dawley rat at 2 mg/kg, iv measured after 48 hrs by triple quadrupole mass spectrometric analysis; type: ADME, organism-based; conditions: in vivo
[9] = Toxicity in C57BL/6 mouse model implanted with mouse B16-F10 cells assessed as body weight loss at 20 mg/kg/day, ip administered for 14 days; type: organism-based; conditions: in vivo, 336 h, time 14 day
HepG2 [10] = assay: cells; conditions: Homo sapiens, HepG2, 48 h
[11] = Toxicity in C57 mouse assessed as change in AST level at 20 mg/kg/day, IG administered for 14 days by heat map analysis; type: organism-based; conditions: in vivo, po, 336 h, time 14 day
[12] = Toxicity in C57 mouse assessed as myelosuppression by measuring WBC level at 20 mg/kg/day, IG administered for 14 days by heat map analysis; type: organism-based; conditions: in vivo, po, 336 h, time 14 day
B16-F10 [13] = assay: Effect on HDAC6 protein level in mouse B16-F10 cells at 0.1 to 2 uM incubated for 12 hrs by Western blot analysis; type: functional, cell-based; conditions: dose 0.1-2 µM
[14] = MRT (0 to infinity) in male Sprague-Dawley rat at 2 mg/kg, iv measured after 48 hrs by triple quadrupole mass spectrometric analysis; type: ADME, organism-based; conditions: in vivo
[15] = Toxicity in C57 mouse assessed as myelosuppression by measuring hematocrit level at 20 mg/kg/day, IG administered for 14 days by heat map analysis; type: organism-based; conditions: in vivo, po, 336 h, time 14 day
[16] = Tmax in male Sprague-Dawley rat at 2 mg/kg, iv measured after 48 hrs by triple quadrupole mass spectrometric analysis; type: ADME, organism-based; conditions: in vivo
[17] = molecular target: T1, Histone deacetylase 8 (Homo sapiens) (UniProt Q9BY41); assay: Inhibition of HDAC8 in human Jurkat T cells assessed as increase in acetylated SMC3 level incubated for 12 hrs by Western blot analysis; type: cell-based
T1 sequence (whole entry): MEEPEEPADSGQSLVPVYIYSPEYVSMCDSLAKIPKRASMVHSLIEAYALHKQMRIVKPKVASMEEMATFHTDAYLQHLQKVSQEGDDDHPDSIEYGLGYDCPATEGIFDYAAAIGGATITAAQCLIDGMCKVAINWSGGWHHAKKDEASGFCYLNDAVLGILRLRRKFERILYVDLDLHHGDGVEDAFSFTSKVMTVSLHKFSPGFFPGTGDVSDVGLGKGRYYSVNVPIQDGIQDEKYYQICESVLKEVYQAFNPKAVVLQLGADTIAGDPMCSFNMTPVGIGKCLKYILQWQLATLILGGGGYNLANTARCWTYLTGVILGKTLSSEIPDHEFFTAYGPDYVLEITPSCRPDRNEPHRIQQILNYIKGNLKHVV

MCF7 = assay: cells; conditions: Homo sapiens, MCF7, 48 h
Histone deacetylase 8 = molecular target: T2, Histone deacetylase 8 (Homo sapiens, UniProt Q9BY41); assay: Inhibition of C-terminal His-tagged recombinant full length human HDAC8 extracted from baculovirus infected Sf9 insect cells preincubated for 5 mins followed by substrate addition and measured after 30 mins by fluorescence microplate reader analysis
T2 sequence (Q9BY41 whole entry): T1 sequence (whole entry)

[18] = In vivo inhibition of PD-L1 in C57BL/6 mouse model implanted with mouse B16-F10 cells assessed as reduction in PD-L1 protein expression in tumor at 20 mg/kg/day, ip administered for 14 days by Western blot analysis relative to control; type: functional; conditions: C57BL/6, B16-F10, 336 h, time 14 day
[19] = Apparent clearance during terminal phase in male Sprague-Dawley rat at 2 mg/kg, iv measured after 48 hrs by triple quadrupole mass spectrometric analysis; type: ADME, organism-based; conditions: in vivo
[20] = Toxicity in C57 mouse assessed as change in GLO level at 20 mg/kg/day, IG administered for 14 days by heat map analysis; type: organism-based; conditions: in vivo, po, 336 h, time 14 day
B16-F10 [21] = assay: Downregulation of PD-L1 expression level in mouse B16-F10 cells at 0.1 to 2 uM incubated for 24 hrs by Western blot analysis; type: functional, cell-based; conditions: dose 0.1-2 µM
[22] = Apparent volume of distribution during terminal phase in male Sprague-Dawley rat at 2 mg/kg, iv measured after 48 hrs by triple quadrupole mass spectrometric analysis; type: ADME, organism-based; conditions: in vivo
[23] = Apparent volume of distribution during terminal phase in male Sprague-Dawley rat at 10 mg/kg, po measured after 48 hrs by triple quadrupole mass spectrometric analysis; type: ADME, organism-based; conditions: in vivo, read-out: Vz/F
B16-F10 [24] = assay: Antitumor activity against mouse B16-F10 cells implanted in C57BL/6 mouse model assessed as reduction in tumor weight at 20 mg/kg/day, ip administered for 14 days; type: functional, organism-based; conditions: time 14.0 day
[25] = molecular target: Histone deacetylase 3 (Homo sapiens) (UniProt O15379); assay: Inhibition of HDAC3 in human Jurkat T cells assessed as increase in acetylated H3 level incubated for 12 hrs by Western blot analysis; type: cell-based
HepG2 [26] = assay: Cytotoxicity against human HepG2 cells assessed as reduction in cell viability at 0.01 to 1 uM incubated for 48 hrs by MTT assay; type: functional, cell-based; conditions: dose 0.01-1 µM
[27] = Half-life in male Sprague-Dawley rat at 10 mg/kg, po measured after 48 hrs by triple quadrupole mass spectrometric analysis; type: ADME, organism-based; conditions: in vivo
B16-F10 [28] = assay: Antitumor activity against mouse B16-F10 cells implanted in C57BL/6 mouse model assessed as tumor growth inhibition at 20 mg/kg/day, ip administered for 14 days relative to control; type: functional; conditions: B16-F10, 336 h, time 14 day, read-out: TGI
[29] = AUC (0 to infinity) in male Sprague-Dawley rat at 2 mg/kg, iv measured after 48 hrs by triple quadrupole mass spectrometric analysis; type: ADME, organism-based; conditions: in vivo
[30] = Toxicity in C57 mouse assessed as change in TBIL level at 20 mg/kg/day, IG administered for 14 days by heat map analysis; type: organism-based; conditions: in vivo, po, 336 h, time 14 day

Chain of Programmed cell death 1 ligand 1 (Q9EP73 whole entry, the tested form may be a part): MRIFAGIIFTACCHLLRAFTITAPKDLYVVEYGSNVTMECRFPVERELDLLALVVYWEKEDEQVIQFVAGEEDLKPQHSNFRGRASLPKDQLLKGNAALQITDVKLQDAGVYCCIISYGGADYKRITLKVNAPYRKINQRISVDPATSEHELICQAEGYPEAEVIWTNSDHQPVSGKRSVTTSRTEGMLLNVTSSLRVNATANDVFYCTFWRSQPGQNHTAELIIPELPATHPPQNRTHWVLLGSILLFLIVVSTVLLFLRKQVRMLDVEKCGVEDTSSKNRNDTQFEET
Chain of Histone deacetylase 3 (Homo sapiens) (O15379 whole entry): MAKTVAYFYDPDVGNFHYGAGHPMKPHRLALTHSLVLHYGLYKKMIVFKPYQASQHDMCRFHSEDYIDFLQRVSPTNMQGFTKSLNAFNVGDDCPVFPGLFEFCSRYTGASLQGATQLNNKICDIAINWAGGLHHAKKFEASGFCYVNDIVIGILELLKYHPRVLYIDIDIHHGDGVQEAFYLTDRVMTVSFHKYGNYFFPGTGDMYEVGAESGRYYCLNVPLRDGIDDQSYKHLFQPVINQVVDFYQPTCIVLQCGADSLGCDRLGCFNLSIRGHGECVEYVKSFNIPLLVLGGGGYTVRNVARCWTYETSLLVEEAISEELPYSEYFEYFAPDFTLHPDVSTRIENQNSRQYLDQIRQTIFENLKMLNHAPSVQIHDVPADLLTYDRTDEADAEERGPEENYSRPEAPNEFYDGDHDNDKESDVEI

## COc1nc(-c2cccc(-c3ccccc3)c2C)ccc1CNCCCCCCC(=O)NO
[1]
  Kd: 0.073 µM
B16-F10 [2]
  Activity: 11.19%
[3]
  Cmax: 194 ng/mL
[4]
  Activity: Non-toxic
Jurkat
  IC50: > 10 µM
[5]
  Activity: Non-toxic
[6]
  Activity: Non-toxic
B16-F10 [7]
  IC50: 8.1 µM
[8]
  Cmax: 638 ng/mL
[9]
  Activity: Non-toxic
HepG2 [10]
  IC50: 9.6 µM
[11]
  Activity: Non-toxic
[12]
  Activity: Non-toxic
B16-F10 [13]
  Activity: inactive
[14]
  MRT inf: 7.12 h
[15]
  Activity: Non-toxic
[16]
  Tmax: 4.8 min
[17]
  inhibition: inactive
MCF7
  IC50: > 10 µM
Histone deacetylase 8
  IC50: > 10 µM
[18]
  inhibition in vivo at 20 mg/kg/day: ~68%
[19]
  CLz/F: 16.2 mL/min/kg
[20]
  Activity: Non-toxic
B16-F10 [21]
  Activity: Active
[22]
  Vz/F: 8.99 L/kg
[23]
  Vd/F: 31.9 L/kg
B16-F10 [24]
  Activity: Active
[25]
  inhibition: inactive
HepG2 [26]
  Activity: inactive
[27]
  half-life: 13.2 h
B16-F10 [28]
  inhibition in vivo at 20 mg/kg/day: 65.5%
[29]
  AUC(0-inf): 1290 ng·h/mL
[30]
  Activity: Non-toxic
